In patent publication US20220079993A1, “NON-NATURALLY OCCURRING THERMOGENIC ADIPOCYTES, METHODS OF MAKING, AND METHODS OF USE THEREOF” (University of Georgia Research Foundation, Inc., priority 2019, published 2022):
Structures can show the parent of a compound that is named as a salt. Where two headings read alike, the source gives them in different places.

Tests used:
[1] = tested on: beige adipocytes; experiment: High-throughput primary screen, lipolysis assay (glycerol release), 384-well; assay type: cell-based, human; settings: 20 μM; for % Control (relative levels of glycerol release): 24 hours of drug treatment, vs untreated beige adipocytes
Description: ADSCs were seeded at 5000 cell/cm^2 in 12-well plates, grown for 5 days and then induced to differentiate into GC for 20 days. […] Cells were treated with forskolin (20 μM) for indicated time periods and supernatant samples were collected. Lipolysis assay was performed with free glycerol reagent (Sigma, F6428-40ML), according to manufacturer instructions.
ADSCs were plated in 384-well plates at a density of 5000 cell/cm2 and grown to confluency over ˜4 days. Cells were then differentiated to beige adipocytes using B-8 medium for 21 days. All cell culture and incubations in the 384-well format were done at 37° C. and 5% CO2. […] The use of FDA-approved drugs may allow for re-purposing for therapeutic use.
(§1) Lipolysis assays were performed after 24 hours of drug treatment by measuring free glycerol released in the 384-well format, using the procedure described above. Absorbance for each compound was normalized to untreated control samples for each plate and calculated as a percent of the control. Cut-offs for “activating” and “inhibiting” compounds were set at 2-fold. Validation assays were performed for select compounds at a range of concentration doses.

[2] = tested on: beige adipocytes; experiment: Lipolysis validation assays of primary hits at three concentrations; assay type: cell-based, human; design: % of Control (1) / % of Control (2) / % of Control (3) / % of Control (4): unit of the concentration uncertain; settings: for activity at 2.2 µM / activity at 6.7 µM / activity at 20 µM / activity at 2200 µM: Homo sapiens, Adipocyte, 24 h; for activity at 2.2 µM: Conc. 2.2 µM; for activity at 6.7 µM: Conc. 6.7 µM; for activity at 20 µM: Conc. 20 µM; for activity at 2200 µM: Conc. 2.2 mM
Description: ADSCs were seeded at 5000 cell/cm^2 in 12-well plates, grown for 5 days and then induced to differentiate into GC for 20 days. Prior to the assay, cells were washed in DPBS twice and then incubated with DMEM with 2% fatty-acid free BSA (Santa Crus, sc-500949) and Triascin C (5 μM). Cells were treated with forskolin (20 μM) for indicated time periods and supernatant samples were collected. Lipolysis assay was performed with free glycerol reagent (Sigma, F6428-40ML), according to manufacturer instructions.
as §1
Next, lipolysis assays were performed for all 111 compounds identified in the primary screen at three different concentrations, of which twenty-four were selected for further analysis based on their newness and/or reproducibility.

Structure (SMILES)	% Control (relative levels of glycerol release) [1] [% control]	activity at 2.2 µM ([2]; read-out: % of Control (2)) [%]	activity at 2.2 µM ([2]; read-out: % of Control (4)) [%]	activity at 6.7 µM ([2]; read-out: % of Control (1)) [%]	activity at 6.7 µM ([2]; read-out: % of Control (2)) [%]	activity at 6.7 µM ([2]; read-out: % of Control (3)) [%]	activity at 6.7 µM ([2]; read-out: % of Control (4)) [%]	activity at 20 µM ([2]; read-out: % of Control (1)) [%]	activity at 20 µM ([2]; read-out: % of Control (2)) [%]	activity at 20 µM ([2]; read-out: % of Control (3)) [%]	activity at 20 µM ([2]; read-out: % of Control (4)) [%]	activity at 2200 µM ([2]; read-out: % of Control (1)) [%]	activity at 2200 µM ([2]; read-out: % of Control (3)) [%]	also measured
CC(C)NCC(O)c1ccc(O)c(O)c1.Cl (racemic) [(±)-Isoproterenol hydrochloride]	389.02	–	–	–	–	–	–	–	–	–	–	–	–	–
O=C(Nc1c[nH]nc1-c1nc2ccc(CN3CCOCC3)cc2[nH]1)NC1CC1 [AT9283]	–	115	133	151	152	161	177	132	144	202	159	163	142	–
CC(=O)Nc1ccccc1 [Acetanilide]	–	377	119	252	332	246	249	298	295	253	258	317	251	–
CC(C)(C)NCC(O)COc1cccc2c1CCC(=O)N2.Cl (centres unmarked) [Carteolol HLC]	32.31	–	–	–	–	–	–	–	–	–	–	–	–	–
CCc1cnn2c(NCc3ccc[n+]([O-])c3)cc(N3CCCC[C@H]3CCO)nc12 [Dinaciclib]	–	232	179	180	204	149	129	291	246	60.7	262	175	193	–
CCOC(=O)C1=C(C)NC(C)=C(C(=O)OC)C1c1cccc(Cl)c1Cl (centres unmarked) [Felodipine]	–	220	206	284	241	228	256	291	274	244	245	243	203	–
CCC(NC(C)C)C(O)c1ccc(O)c(O)c1 (centres unmarked) [Isoetharine Mesylate]	–	307	106	373	301	339	247	417	304	204	260	294	258	–
CC(C)NCC(O)c1ccc(O)c(O)c1 (centres unmarked) [Isoproterenol HCl]	–	272	251	284	294	241	236	289	268	252	237	282	236	Outcome in the primary screen (glycerol release), in words ([1]; 24 hours, cut-offs at 2-fold): identified as primary hits
C[C@@H]1CC(=O)NN=C1c1ccc(NN=C(C#N)C#N)cc1 [Levosimendan]	–	163	236	197	189	211	246	261	280	247	340	215	189	–
CC(Oc1c(Cl)cccc1Cl)C1=NCCN1 (centres unmarked) [Lofexidine HCl]	–	115	91.4	122	176	180	149	205	200	148	191	104	119	–
CC(C)C[C@H](NC(=O)CNC(=O)c1cc(Cl)ccc1Cl)B1OC(=O)C(CC(=O)O)(CC(=O)O)O1 [MLN9708]	–	139	114	198	228	176	115	138	173	117	90	251	205	–
CC(C)NCC(O)c1cc(O)cc(O)c1 (centres unmarked) [Metaproterenol Sulfate]	–	298	305	311	412	293	283	305	293	308	274	327	291	–
Cc1[nH]c(=O)c(C#N)cc1-c1ccncc1 [Milrinone]	–	117	170	236	154	116	142	168	205	171	185	99	126	–
CO[C@H]1CC[C@@H](O[C@H]2C[C@H]([C@]3(C)CC[C@]4(C[C@H](O)[C@@H](C)[C@@H]([C@@H](C)/C=C(\C)C(=O)[C@H](C)C[C@H](C)C(=O)O)O4)O3)O[C@]3(O[C@@H]([C@H]4O[C@@](O)(CO)[C@H](C)C[C@@H]4C)C[C@@H]3C)[C@@H]2C)O[C@@H]1C [Nanchangmycin]	–	–	–	–	–	–	–	–	–	–	–	–	–	% of Control (1) ([2]; Conc. 2.2 (unit uncertain)): 259.29 % of Control; % of Control (2) ([2]; Conc. 2.2 (unit uncertain)): 209.65 % of Control; % of Control (3) ([2]; Conc. 2.2 (unit uncertain)): 192.42 % of Control; % of Control (4) ([2]; Conc. 2.2 (unit uncertain)): 124.48 % of Control; % of Control (1) ([2]; Conc. 6.7 (unit uncertain)): 196.07 % of Control; % of Control (2) ([2]; Conc. 6.7 (unit uncertain)): 104.94 % of Control; % of Control (3) ([2]; Conc. 6.7 (unit uncertain)): 147.69 % of Control; % of Control (4) ([2]; Conc. 6.7 (unit uncertain)): 106.09 % of Control; % of Control (1) ([2]; Conc. 20 (unit uncertain)): 147.14 % of Control; % of Control (2) ([2]; Conc. 20 (unit uncertain)): 168.94 % of Control; % of Control (3) ([2]; Conc. 20 (unit uncertain)): 98.9 % of Control; % of Control (4) ([2]; Conc. 20 (unit uncertain)): 168.85 % of Control
CNC(=O)c1ccc(C)c(-n2c(C)cc(OCc3ccc(F)cc3F)c(Br)c2=O)c1 [PH-797804]	38.23	–	–	–	–	–	–	–	–	–	–	–	–	–
CNC[C@H](O)c1cccc(O)c1 [Phenylephrine HCl]	–	253	240	271	266	240	232	353	373	248	232	338	221	–
CC(C)NC[C@H](O)c1ccc(O)c(O)c1.O=C(O)C(O)C(O)C(=O)O [R(+)-Isoproterenol (+)-bitartrate]	363.04	–	–	–	–	–	–	–	–	–	–	–	–	–
COC1(C2=NCCN2)COc2ccccc2O1.Cl (centres unmarked) [RX 821002 hydrochloride]	30.77	–	–	–	–	–	–	–	–	–	–	–	–	–
CC(C)NC[C@@H](O)c1ccc(O)c(O)c1.O=C(O)C(O)C(O)C(=O)O [S(−)-Isoproterenol (+)-bitartrate]	367.84	–	–	–	–	–	–	–	–	–	–	–	–	–
Oc1ccc(-c2nc(-c3ccc(F)cc3)c(-c3ccncc3)[nH]2)cc1 [SB202190 (FHPI)]	34.88	–	–	–	–	–	–	–	–	–	–	–	–	–
C[n+]1cc2c3c(ccc2c2ccc4cc5c(cc4c21)OCO5)OCO3 [Sanguinarine]	–	142	121	218	198	128	101	185	155	133	160	179	71.3	–
